Here are results for one molecule from patent US20230310427A1, “NEW THERAPEUTIC USE OF RILPIVIRINE” (UNIVERSITY OF SOUTH AUSTRALIA, priority 2020, published 2023).

pKi: −log10 of the molar value.

One assay deals with T1, FLT3 (Homo sapiens, UniProt P36888).
T1 construct: purchased Promega (ADP-Glo kits) or Reaction Biology Corporation / Eurofins discovery services (external)
Description: Kinase assay. It counts as biochemical. The following applies: kinase inhibition profiling (FIG. 2), concentration of 10 µM. On the procedure:
(§1) The ability of compounds to inhibit kinases was measured using ADP-Glo^Tm assay kits (Promega, Madison, WI, United States of America) or externally using radioisotope based assays (Reaction Biology Corporation, Malvern, PA, United States of America and Eurofins discovery services, France). The ADP-Glo assay was performed as reported previously (Basnet SK et al., Mol Pharmacol 88(5):935-948, 2015).The assay plate was read for luminescence using Envision multi-label plate reader (PerkinElmer, Waltham, MA, United States of America). Half-maximal inhibition (IC50) values were determined from a plot of percent residual activity versus concentration of test compounds using GraphPad Prism software. Ki values were calculated from IC50 values using the Cheng-Prusoff equation: Ki= IC50/ [1 + ([ATP]/Km ATP)], where [ATP] is the ATP concentration used for the IC50 determination and Km ATP for each kinase is determined from an individual experiment.

Another assay deals with T2, PIM1 (Homo sapiens, UniProt P11309).
T2 construct: purchased Promega (ADP-Glo kits) or Reaction Biology Corporation / Eurofins discovery services (external)
T2 sequence (P11309 whole entry): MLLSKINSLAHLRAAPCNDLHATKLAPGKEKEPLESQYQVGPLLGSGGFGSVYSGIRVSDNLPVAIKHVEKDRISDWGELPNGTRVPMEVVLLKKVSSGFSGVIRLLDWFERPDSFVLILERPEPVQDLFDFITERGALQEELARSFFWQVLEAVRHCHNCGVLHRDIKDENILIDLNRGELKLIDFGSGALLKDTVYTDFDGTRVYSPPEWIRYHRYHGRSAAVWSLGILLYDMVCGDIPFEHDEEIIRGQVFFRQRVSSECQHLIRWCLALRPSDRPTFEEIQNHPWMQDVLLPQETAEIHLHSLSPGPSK
The assay is described as follows: Kinase assay. It counts as biochemical. Here is the method: as §1

In the next assay the target is T3, Aurora A kinase (Homo sapiens, UniProt O14965).
T3 construct: purchased Promega (ADP-Glo kits) or Reaction Biology Corporation / Eurofins discovery services (external)
T3 sequence (O14965 1-403): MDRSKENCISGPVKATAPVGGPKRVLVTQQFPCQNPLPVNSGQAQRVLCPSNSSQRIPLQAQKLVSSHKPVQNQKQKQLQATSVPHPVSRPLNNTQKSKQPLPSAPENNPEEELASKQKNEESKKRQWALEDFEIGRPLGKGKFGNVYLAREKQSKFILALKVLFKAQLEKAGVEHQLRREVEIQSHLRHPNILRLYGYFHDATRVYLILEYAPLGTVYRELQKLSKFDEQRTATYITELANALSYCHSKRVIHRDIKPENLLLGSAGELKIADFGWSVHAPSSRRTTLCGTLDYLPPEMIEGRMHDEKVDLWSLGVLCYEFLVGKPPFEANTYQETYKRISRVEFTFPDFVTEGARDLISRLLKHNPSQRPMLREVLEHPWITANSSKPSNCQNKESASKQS
Description: Kinase assay. It counts as biochemical. Here is the method:
as §1

In the next assay the target is T4, Aurora B kinase (Homo sapiens, UniProt Q96GD4).
T4 construct: purchased Promega (ADP-Glo kits) or Reaction Biology Corporation / Eurofins discovery services (external)
T4 sequence (Q96GD4 whole entry): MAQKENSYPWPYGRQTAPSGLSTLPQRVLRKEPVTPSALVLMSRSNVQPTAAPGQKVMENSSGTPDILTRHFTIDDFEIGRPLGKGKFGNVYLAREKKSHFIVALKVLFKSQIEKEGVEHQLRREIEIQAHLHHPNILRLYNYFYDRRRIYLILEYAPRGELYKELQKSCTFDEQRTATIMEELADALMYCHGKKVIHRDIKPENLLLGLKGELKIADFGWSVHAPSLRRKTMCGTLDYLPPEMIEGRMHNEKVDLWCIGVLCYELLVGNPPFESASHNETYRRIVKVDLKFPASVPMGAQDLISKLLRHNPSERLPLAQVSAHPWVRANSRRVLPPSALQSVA
Description: Kinase assay. The class given is biochemical. The note with it: kinase inhibition profiling (FIG. 2), concentration of 10 µM. Here is the method:
as §1

A further assay concerns the target T5, JAK1 (Homo sapiens, UniProt P23458).
T5 construct: purchased Promega (ADP-Glo kits) or Reaction Biology Corporation / Eurofins discovery services (external)
Description: Kinase assay. The class given is biochemical. The note with it: kinase inhibition profiling (FIG. 2), concentration of 10 µM. On the procedure: as §1

The target in a further assay is T6, LYN (Homo sapiens, UniProt P07948).
T6 construct: purchased Promega (ADP-Glo kits) or Reaction Biology Corporation / Eurofins discovery services (external)
T6 sequence (P07948 whole entry): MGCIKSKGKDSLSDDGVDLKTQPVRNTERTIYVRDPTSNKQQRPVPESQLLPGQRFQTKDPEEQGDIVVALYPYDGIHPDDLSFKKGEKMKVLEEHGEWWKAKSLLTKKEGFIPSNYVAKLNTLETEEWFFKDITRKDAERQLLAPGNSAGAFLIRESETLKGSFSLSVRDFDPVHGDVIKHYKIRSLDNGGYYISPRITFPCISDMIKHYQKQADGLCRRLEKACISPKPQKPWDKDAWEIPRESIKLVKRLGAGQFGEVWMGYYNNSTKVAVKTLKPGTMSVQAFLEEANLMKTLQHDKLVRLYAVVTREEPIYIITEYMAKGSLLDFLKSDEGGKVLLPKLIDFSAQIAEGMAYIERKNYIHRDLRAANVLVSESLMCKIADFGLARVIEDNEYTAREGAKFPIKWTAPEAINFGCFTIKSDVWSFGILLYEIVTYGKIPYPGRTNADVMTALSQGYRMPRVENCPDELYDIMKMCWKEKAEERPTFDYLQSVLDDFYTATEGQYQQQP
Description: Kinase assay. It counts as biochemical. The following applies: expanded panel, read-out: percent inhibition. On the procedure:
as §1

The next assay deals with T7, YES kinase (Homo sapiens, UniProt P07947).
T7 construct: purchased Promega (ADP-Glo kits) or Reaction Biology Corporation / Eurofins discovery services (external)
T7 sequence (P07947 whole entry): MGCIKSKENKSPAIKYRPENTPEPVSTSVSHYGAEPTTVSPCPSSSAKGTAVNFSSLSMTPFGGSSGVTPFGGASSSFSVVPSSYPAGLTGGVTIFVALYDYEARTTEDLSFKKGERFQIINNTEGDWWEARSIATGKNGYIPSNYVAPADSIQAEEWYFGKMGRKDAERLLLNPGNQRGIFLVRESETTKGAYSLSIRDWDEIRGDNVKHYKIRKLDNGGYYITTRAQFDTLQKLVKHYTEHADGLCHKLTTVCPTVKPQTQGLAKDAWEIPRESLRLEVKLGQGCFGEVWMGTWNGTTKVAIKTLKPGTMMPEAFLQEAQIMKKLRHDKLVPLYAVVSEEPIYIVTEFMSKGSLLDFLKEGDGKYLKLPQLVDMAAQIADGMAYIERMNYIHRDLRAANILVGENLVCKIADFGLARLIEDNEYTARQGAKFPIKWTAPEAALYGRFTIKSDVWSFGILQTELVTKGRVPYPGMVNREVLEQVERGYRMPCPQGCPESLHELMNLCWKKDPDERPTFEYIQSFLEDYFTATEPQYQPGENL
Description: Kinase assay. It counts as biochemical. The following applies: expanded panel, read-out: percent inhibition. Here is the method: as §1

The next assay concerns OVCAR-5 cells. Description: Cell cycle analysis (flow cytometry). It counts as cell-based. The following applies: 72 hour, 5 µM, 10 µM and 20 µM; p53 WT. On the procedure: (§2) The effect of Rilpivirine on cell cycle distribution in different cancer cell lines was evaluated by flow cytometric analysis. Briefly, cells were seeded in 6-well plates at a density of 6 × 10^4 cells/well. All plates were incubated overnight at 37° C. in a 5% CO2 incubator. Following the incubation, the test compounds (Rilpivirine (Ril) and comparators, Alisertib (Ali; a known Aurora A inhibitor) and Etravirine (Etra; 4-[[6-amino-5-bromo-2-[(4-cyanophenyl)amino]-4-pyrimidinyl]oxy]-3,5-dimethylbenzonitrile - a structurally similar NNRTI drug compound sold under the brand name Intelence® (Janssen Therapeutics)) were added to individual wells and the plates were incubated at same condition for 24 h, 48 h or 72 h. Subsequently, the medium was removed from the wells and transferred into fluorescence-activated cell sorting (FACS) tubes. The adherent cells remaining were trypsinised, re-suspended in media and transferred into the FACS tubes. Cells were centrifuged, fixed with cold 70% ethanol for 15 min and pelleted. The pelleted cells were then re-suspended in 200 µL propidium iodide (PI) solution (50 µg/mL propidium iodide, 0.1 mg/mL ribonuclease A, 0.1% sodium citrate, 0.1% triton X-100) and incubated in the dark for 1.5 h at room temperature. Following the incubation, 200 µL PBS was added. Samples were assessed using a flow cytometer (Cytoflex; Beckman Coulter Inc, Brea, CA, United States of America) and data were analysed using the Cytexpert software.

Another assay deals with HL-60 cells. The assay is described as follows: Cell cycle analysis (flow cytometry). The class given is cell-based. Here is the method: as §2
Assay [1] concerns Miapaca-2 (pancreatic) cancer cell lines. Description: Cell cycle analysis (flow cytometry). It counts as cell-based. The following applies: 48 hours; data not shown. Here is the method:
as §2
On the technique in general: Flow cytometry measures light scatter and fluorescence of single cells or particles in a stream.

In the next assay the test system is p21 in A2780 cells. Description: Western blot, cell cycle regulatory proteins. It counts as cell-based. The note with it: 24 hour, increasing concentration. Here is the method: (§3) For Western blotting, cells (8×10^5) were seeded in a culture dish with 10 mL medium and incubated overnight at 37° C., 5% CO2. Untreated and compound-treated cells were lysed using phosphate lysis buffer and protease inhibitors. The protein concentration of each sample was determined by Bio-Rad DC™ protein assay (Bio-Rad Laboratories, Hercules, CA, United States of America). The protein was deactivated at 95° C. for 5 min and then resolved on 4-20% polyacrylamide gels by electrophoresis. Proteins were transferred to polyvinylidene difluoride (PDVF) membrane and blocked for 1 h with 10% skimmed milk (SM) in Tris-buffered saline and Tween (TBST). After adding primary antibody, the membranes were incubated overnight on a rocker in a 4° C. cold room. The following day, membranes were washed in TBST (4×20 min), incubated for at least 1 h at room temperature with the appropriate horseradish peroxidase conjugated secondary antibody. Following this, the blots were washed with TBST (4×20 min) again. The blots were then treated with Western blotting detection reagent and the band intensity was determined using a Bio-Rad ChemiDoc™ MP imaging system (Bio-Rad Laboratories). All the antibodies used for protein detection were from Cell Signaling Technology (Danvers, MA, United States of America). The primary and secondary antibodies used were obtained from Cell Signalling Technology (Danvers, MA, United States of America).
(In general: Immunoblotting shows a protein as a band on a membrane.)

In another assay the test system is cyclin D1 in A2780 cells. Description: Western blot, cell cycle regulatory proteins. The following applies: 24 hour, increasing amounts. The class given is cell-based. Here is the method:
as §3

The next assay relates to p53 in A2780 cells. Description: Western blot, cell cycle regulatory proteins. The following applies: 24 hour, increasing concentration. The class given is cell-based. Here is the method:
as §3

The subject of assay [2] is phosphorylated retinoblastoma (Rb) protein in A2780 cells. The assay is described as follows: Western blot, cell cycle regulatory proteins. It counts as cell-based. The note with it: 24 hour, increasing amounts. Here is the method: as §3
Where [3] appears, read: 1 µM, expanded panel, read-out: percent inhibition.
Where [4] appears, read: kinase inhibition profiling (FIG. 2), concentration of 10 µM.

A word on the inhibition: it is the change of the read-out against control, counted positive when it falls. In general, pKi refers to the Ki on a negative log10 scale, so that one unit is a factor of ten. A high value points to a low Ki.

T1 sequence (P36888 27-993): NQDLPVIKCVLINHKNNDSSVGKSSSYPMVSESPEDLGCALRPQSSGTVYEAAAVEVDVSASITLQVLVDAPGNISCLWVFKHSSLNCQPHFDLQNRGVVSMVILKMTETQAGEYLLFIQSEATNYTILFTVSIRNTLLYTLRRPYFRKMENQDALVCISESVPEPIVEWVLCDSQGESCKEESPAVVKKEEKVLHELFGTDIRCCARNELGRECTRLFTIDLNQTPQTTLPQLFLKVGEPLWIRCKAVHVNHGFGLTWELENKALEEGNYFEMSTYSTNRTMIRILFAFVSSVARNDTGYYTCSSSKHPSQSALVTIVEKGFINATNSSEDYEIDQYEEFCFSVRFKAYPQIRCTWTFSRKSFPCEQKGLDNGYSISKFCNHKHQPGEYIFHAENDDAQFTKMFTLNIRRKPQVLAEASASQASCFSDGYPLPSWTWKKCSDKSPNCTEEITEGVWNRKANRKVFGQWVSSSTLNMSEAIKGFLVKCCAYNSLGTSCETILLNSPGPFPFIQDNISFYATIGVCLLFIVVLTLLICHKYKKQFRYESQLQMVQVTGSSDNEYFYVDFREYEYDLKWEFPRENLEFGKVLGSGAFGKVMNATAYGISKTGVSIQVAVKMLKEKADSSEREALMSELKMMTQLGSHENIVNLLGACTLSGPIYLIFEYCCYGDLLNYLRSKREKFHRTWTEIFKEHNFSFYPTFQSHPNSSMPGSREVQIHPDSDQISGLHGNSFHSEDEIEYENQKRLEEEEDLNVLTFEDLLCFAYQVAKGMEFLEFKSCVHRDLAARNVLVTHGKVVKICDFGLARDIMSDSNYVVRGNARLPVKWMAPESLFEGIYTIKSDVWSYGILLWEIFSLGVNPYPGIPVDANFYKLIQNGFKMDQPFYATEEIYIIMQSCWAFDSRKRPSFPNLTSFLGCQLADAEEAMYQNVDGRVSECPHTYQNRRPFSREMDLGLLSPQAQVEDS
T5 sequence (P23458 whole entry): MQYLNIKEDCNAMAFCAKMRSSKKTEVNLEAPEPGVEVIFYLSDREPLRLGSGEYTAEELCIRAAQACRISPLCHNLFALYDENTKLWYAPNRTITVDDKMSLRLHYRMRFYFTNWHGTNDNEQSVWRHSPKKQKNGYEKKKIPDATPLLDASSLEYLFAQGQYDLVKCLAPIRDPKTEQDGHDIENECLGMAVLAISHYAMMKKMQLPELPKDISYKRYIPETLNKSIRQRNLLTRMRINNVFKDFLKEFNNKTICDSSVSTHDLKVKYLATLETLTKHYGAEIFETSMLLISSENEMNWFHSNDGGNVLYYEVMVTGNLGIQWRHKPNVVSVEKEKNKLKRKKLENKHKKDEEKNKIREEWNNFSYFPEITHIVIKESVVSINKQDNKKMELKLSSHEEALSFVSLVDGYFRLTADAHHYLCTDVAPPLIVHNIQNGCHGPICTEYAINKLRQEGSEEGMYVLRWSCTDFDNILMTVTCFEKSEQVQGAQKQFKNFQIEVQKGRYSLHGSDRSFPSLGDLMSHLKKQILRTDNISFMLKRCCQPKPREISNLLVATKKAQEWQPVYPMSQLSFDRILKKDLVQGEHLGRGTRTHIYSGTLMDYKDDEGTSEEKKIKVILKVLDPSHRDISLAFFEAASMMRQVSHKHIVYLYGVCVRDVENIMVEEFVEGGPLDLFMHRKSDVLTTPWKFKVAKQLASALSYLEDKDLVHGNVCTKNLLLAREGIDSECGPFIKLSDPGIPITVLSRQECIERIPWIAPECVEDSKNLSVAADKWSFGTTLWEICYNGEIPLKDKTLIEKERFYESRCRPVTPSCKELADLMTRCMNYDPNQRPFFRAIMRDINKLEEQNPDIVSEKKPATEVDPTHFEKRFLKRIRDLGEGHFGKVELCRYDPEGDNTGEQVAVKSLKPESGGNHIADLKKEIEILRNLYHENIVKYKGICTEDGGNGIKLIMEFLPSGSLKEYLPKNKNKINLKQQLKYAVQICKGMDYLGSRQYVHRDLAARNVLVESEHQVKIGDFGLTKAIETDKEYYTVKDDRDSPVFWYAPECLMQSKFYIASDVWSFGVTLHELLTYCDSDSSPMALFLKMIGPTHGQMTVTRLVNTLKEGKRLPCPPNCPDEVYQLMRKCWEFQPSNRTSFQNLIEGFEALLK

Consider `Cc1cc(/C=C/C#N)cc(C)c1Nc1ccnc(Nc2ccc(C#N)cc2)n1` [Rilpivirine, 4-[[4-[4-[(E)-2-cyanoethenyl]-2,6-dimethylanilino]pyrimidin-2-yl]amino]benzonitrile], for which the “inhibitory activity against FLT3” value at FLT3 is on record as “some inhibitory activity”. The inhibition at 1 µM at PIM1 (setting [3]) was 78%; at Aurora A kinase (setting [3]), 86%; at LYN, 77%; at YES kinase, 83%. Besides, at PIM1 (setting [4]), the “inhibitory activity against PIM1” value is listed as “some inhibitory activity”. For the same molecule, at Aurora A kinase (cell free kinase assay), the pKi is 6.89. Moreover, the “inhibitory activity against Aurora A” value at Aurora A kinase (setting [4]) was “potently inhibits”. Also, the “inhibitory activity against Aurora B” value on Aurora B kinase is listed as “some inhibitory activity”. In addition, the “inhibitory activity against JAK1” value against JAK1 is “some inhibitory activity”. Also, the cell cycle arrest entry in the assay with OVCAR-5 cells is “arrests the cells in the G1 phase or accumulated in Sub-G1 phase at higher concentrations”; in the assay with HL-60 cells (5, 10 and 20 µM for 24 hrs, p53 null), “arrested in the G2/M Phase”; in assay [1], “G2/M arrest increased with increasing concentrations of the drug”. In addition, the “numbers of cells in G2/M” value with HL-60 cells (24 hour treatment, versus diluent only) is given as “approximately doubled”. The p21 protein result in the assay with p21 in A2780 cells was “induced its target gene p21”. For the same molecule, the “amount of cyclin D1” value in the assay on cyclin D1 in A2780 cells is “decrease”. Moreover, the “expression of p53 protein” value with p53 in A2780 cells was “increase in the expression of p53”. Moreover, in assay [2], the “amount of phosphorylated Rb protein” value was “decrease”.
